# In US11040976B2, “Substrate selective inhibitors of insulin-degrading enzyme (IDE) and uses thereof” (President and Fellows of Harvard College, priority 2015, dated 2021):
# Molecular target: T1, recombinant human IDE42-1019 (Homo sapiens, UniProt P14735)
# T1 construct: recombinant human IDE42-1019 (R&D Systems); purchased R&D Systems
# T1 sequence (P14735 42-1019): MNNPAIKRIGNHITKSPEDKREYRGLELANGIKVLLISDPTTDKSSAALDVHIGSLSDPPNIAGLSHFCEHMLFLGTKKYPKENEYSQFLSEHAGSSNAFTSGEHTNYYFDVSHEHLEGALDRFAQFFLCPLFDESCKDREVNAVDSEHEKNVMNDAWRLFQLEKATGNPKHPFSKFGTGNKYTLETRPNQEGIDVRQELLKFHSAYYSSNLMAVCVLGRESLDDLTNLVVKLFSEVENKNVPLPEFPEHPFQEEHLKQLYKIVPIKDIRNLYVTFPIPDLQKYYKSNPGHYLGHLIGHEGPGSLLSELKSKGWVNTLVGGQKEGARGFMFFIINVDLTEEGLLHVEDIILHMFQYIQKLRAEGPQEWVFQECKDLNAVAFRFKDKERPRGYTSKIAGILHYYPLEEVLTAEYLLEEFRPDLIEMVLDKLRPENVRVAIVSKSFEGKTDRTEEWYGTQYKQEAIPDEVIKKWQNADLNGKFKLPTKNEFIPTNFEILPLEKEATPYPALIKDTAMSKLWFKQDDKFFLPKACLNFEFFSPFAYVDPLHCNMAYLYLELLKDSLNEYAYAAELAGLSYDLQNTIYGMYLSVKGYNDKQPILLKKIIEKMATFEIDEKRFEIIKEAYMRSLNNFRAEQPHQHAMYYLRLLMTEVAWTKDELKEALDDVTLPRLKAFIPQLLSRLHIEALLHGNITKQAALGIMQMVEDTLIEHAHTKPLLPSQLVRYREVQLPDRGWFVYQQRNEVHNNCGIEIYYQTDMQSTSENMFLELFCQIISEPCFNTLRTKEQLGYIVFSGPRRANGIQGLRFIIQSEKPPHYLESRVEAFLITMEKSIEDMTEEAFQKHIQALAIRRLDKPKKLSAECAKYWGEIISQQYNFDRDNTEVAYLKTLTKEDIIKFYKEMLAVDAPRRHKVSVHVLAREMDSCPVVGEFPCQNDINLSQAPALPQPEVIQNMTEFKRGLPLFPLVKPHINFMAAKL
# Assay: Protease assay with fluorogenic peptide substrate Mca-[…](Dnp)-OH
# Type: biochemical
# Settings: fluorogenic peptide Mca-RPPGFSAFK(Dnp)-OH; apparent IC50 for compounds with submaximal inhibition; read-out: IC50 (μM) Proteolysis
# Description: The proteases IDE42-1019, recombinant human IDE42-1019 (R&D Systems), neprilysin (R&D), and angiotensin-converting enzyme (R&D) were assayed using the fluorophore/quencher-tagged peptide substrate Mca-[…](Dnp)-OH (SEQ ID NO: 24) (R&D) according to the manufacturer's instructions and using the recommended buffers (fluorophore Mca=(7-methoxycourmarin-4-yl)acetyl and quencher Dnp=2,4-dinitrophenyl). For IDE the recommended buffer is 50 mM Tris pH 7.5, 1 M NaCl. The enzyme mixtures (48 μL) were transferred to a 96-well plate and combined with 2 μL of inhibitor in DMSO solutions, in 3-fold dilution series. The mixtures were allowed to equilibrate for 10 minutes and the enzymatic reaction was started by addition of substrate peptide in assay buffer (50 μL), mixed, and monitored on a fluorescence plate reader (excitation at 320 nm, emission at 405 nm). Similarly, thimet oligopeptidase (R&D) and neurolysin (R&D) were assayed using substrate Mca-PLGPK(Dnp)-OH (SEQ ID NO: 25) (R&D) according to the manufacturer's instructions and using the recommended buffers. Matrix metalloproteinase-1 (R&D) was activated and assayed according to the manufacturer's instructions with substrate Mca-KPLGL-Dpa-AR-NH2 (SEQ ID NO: 20) (R&D) (quencher DPA=N-3-(2,4,dinitrophenyl)-L-2,3-diaminopropionyl). All assay data points were obtained in duplicate.
row,IC50 [µM],SMILES
1,0.09,Cc1cccc(-c2ccc([C@H]3C4CN(S(=O)(=O)c5cnc6n5CCCCC6)C/C=C\CN4[C@@H]3CO)cc2)c1C (some centres unmarked) [JP-S17]
2,0.02,COC[C@@H]1[C@@H](c2ccc(-c3cccc(C)c3C)cc2)C2CN(S(=O)(=O)c3cnc(C)n3C)C/C=C\CN21 (some centres unmarked) [JP-S18-OMe]
3,0.002,Cc1cccc(-c2ccc([C@H]3C4CN(S(=O)(=O)c5cnc(C)n5C)C/C=C\CN4[C@@H]3CO)cc2)c1C (some centres unmarked) [JP-S18]
4,0.09,CCn1ncc(S(=O)(=O)N2C/C=C\CN3C(C2)[C@H](c2ccc(-c4cccc(C)c4C)cc2)[C@H]3CO)c1C (some centres unmarked) [JP-S19]
5,0.03,Cc1cccc(-c2ccc([C@H]3C4CN(S(=O)(=O)c5cn(C)nc5C(F)(F)F)C/C=C\CN4[C@@H]3CO)cc2)c1C (some centres unmarked) [JP-S20]
6,> 0.2,COC[C@@H]1[C@@H](c2ccc(-c3cccc(C)c3C)cc2)[C@@H]2CN(S(=O)(=O)c3ccc[n+](C)c3C)CCCCN12 [JP-S21-diMe]
7,0.02,Cc1cccc(-c2ccc([C@H]3C4CN(S(=O)(=O)c5cccnc5C)C/C=C\CN4[C@@H]3CO)cc2)c1C (some centres unmarked) [JP-S21]
8,0.03,Cc1cccc(-c2ccc([C@@H]3[C@@H](CO)N4CCCCN(S(=O)(=O)N5CCN(C)CC5)C[C@@H]34)cc2)c1C [JP-S22]
9,0.0006,Cc1cccc(-c2ccc([C@@H]3[C@@H](CO)N4CCCCN(S(=O)(=O)c5nccn5C)C[C@@H]34)cc2)c1C [JP-S23]
10,0.01,Cc1cccc(-c2ccc([C@@H]3[C@@H](CO)N4CCCCN(S(=O)(=O)c5ccnn5C)C[C@@H]34)cc2)c1C [JP-S24]
11,0.02,Cc1cc(S(=O)(=O)N2CCCCN3[C@H](CO)[C@@H](c4ccc(-c5cccc(C)c5C)cc4)[C@@H]3C2)n(C)n1 [JP-S25]
12,> 5,COC(=O)c1ccc(S(=O)(=O)N2CCCCN3C(C2)[C@H](c2ccc(-c4cccc(C)c4C)cc2)[C@H]3CO)n1C (some centres unmarked) [JP-S27]
13,> 100,Cc1ccccc1S(=O)(=O)N1CCCCN2[C@H](CO)[C@@H](c3ccccc3)[C@@H]2C1 [K2]
14,0.4,COc1cccc(-c2ccc([C@@H]3[C@@H](CO)N4CCCCN(S(=O)(=O)c5ccccc5C)C[C@@H]34)cc2)c1 [K3]
15,2.5,Cc1ccccc1S(=O)(=O)N1CCCCN2[C@H](CO)[C@@H](c3ccc(-c4ccc5c(c4)OCO5)cc3)[C@@H]2C1 [K5]
16,0.002,Cc1ccccc1S(=O)(=O)N1CCCCN2[C@H](CO)[C@@H](c3ccc(-c4cccc(C)c4C)cc3)[C@@H]2C1 [K9]
17,0.1,Cc1cc(C)cc(-c2ccc([C@@H]3[C@@H](CO)N4CCCCN(S(=O)(=O)c5ccccc5C)C[C@@H]34)cc2)c1 [K10]
18,2.5,Cc1ccccc1S(=O)(=O)N1CCCCN2[C@H](CO)[C@@H](c3ccc(-c4cccc(F)c4)cc3)[C@@H]2C1 [K11]
19,0.09,Cc1ccc(C)c(-c2ccc([C@@H]3[C@@H](CO)N4CCCCN(S(=O)(=O)c5ccccc5C)C[C@@H]34)cc2)c1 [K13]

row,IC50 [µM],SMILES
1,0.3,COc1ccccc1-c1ccc([C@H]2C3CN(S(=O)(=O)c4ccccc4C)CCCCN3[C@@H]2CO)cc1 (some centres unmarked) [K14]
2,0.8,Cc1ccccc1S(=O)(=O)N1CCCCN2[C@H](CO)[C@@H](c3ccc(-c4cccc(F)c4F)cc3)[C@@H]2C1 [K15]
3,0.8,COc1ccc(C)cc1-c1ccc([C@@H]2[C@@H](CO)N3CCCCN(S(=O)(=O)c4ccccc4C)C[C@@H]23)cc1 [K16]
4,0.9,COc1ccc(-c2ccc([C@@H]3[C@@H](CO)N4CCCCN(S(=O)(=O)c5ccccc5C)C[C@@H]34)cc2)c(C)c1 [K17]
5,0.1,Cc1c(-c2ccc([C@@H]3[C@@H](CO)N4CCCCN(S(=O)(=O)c5ccccc5C(F)(F)F)C[C@@H]34)cc2)cccc1C(F)(F)F [K19]
6,0.1,Cc1ccccc1S(=O)(=O)N1CCCCN2[C@H](CO)[C@@H](c3ccc(-c4cccc(F)c4C)cc3)[C@@H]2C1 [K20]
7,0.008,O=S(=O)(c1ccccc1C(F)(F)F)N1C/C=C\CN2C(C1)[C@H](c1ccc(-c3cccc(Cl)c3Cl)cc1)[C@H]2CO (some centres unmarked) [K21]
8,0.01,Cc1c(Cl)cccc1-c1ccc([C@H]2C3CN(S(=O)(=O)c4ccccc4C(F)(F)F)C/C=C\CN3[C@@H]2CO)cc1 (some centres unmarked) [K22]
9,0.3,Cc1ccccc1S(=O)(=O)N1CCCCN2[C@H](CO)[C@@H](c3ccc(-c4cccc(F)c4C(F)(F)F)cc3)[C@@H]2C1 [K23]
10,0.3,Cc1ccccc1S(=O)(=O)N1CCCCN2[C@H](CO)[C@@H](c3ccc(-c4ccc(F)c(F)c4C)cc3)[C@@H]2C1 [K24]
11,4,Cc1ccccc1S(=O)(=O)N1CCCCN2[C@H](CO)[C@@H](c3ccc(-c4cnc(F)c(C)c4)cc3)[C@@H]2C1 [K26]
12,0.05,Cc1ccccc1S(=O)(=O)N1CCCCN2[C@H](CF)[C@@H](c3ccc(-c4cccc(C)c4C)cc3)[C@@H]2C1 [K28]
13,0.25,Cc1cccc(-c2ccc([C@H]3C4CN(S(=O)(=O)c5ccccc5C)CCCCN4[C@@H]3CN)cc2)c1 (some centres unmarked) [K29]
14,> 5,Cc1cccc(-c2ccc([C@H]3[C@H](CO)N4C(=O)CN(C(=O)NC5CCCCC5)C[C@@H]34)cc2)c1 [compound 130]
15,2.5,CCCNC(=O)N1CC(=O)N2[C@@H](CO)[C@H](c3ccc(-c4cccc(C)c4)cc3)[C@@H]2C1 [compound 231]
16,> 200,Cc1cccc(-c2ccc([C@@H]3[C@@H](CO)N4CCCCN(C(=O)c5ccc6c(c5)OCO6)C[C@@H]34)cc2)c1 [compound 291]
17,2,COC[C@H]1[C@H](c2ccc(C#Cc3ccccc3F)cc2)[C@@H]2CN(C(=O)NC(C)C)CCCCN12 [compound 304]
18,1.5,O=C(NC1CCCC1)N1CCCCN2[C@@H](CO)[C@H](c3ccc(/C=C/c4ccccc4)cc3)[C@@H]2C1 [compound 346]

# Same assay, conditions: fluorogenic peptide Mca-RPPGFSAFK(Dnp)-OH; plateau at high inhibitor concentration; read-out: Imax (%) Proteolysis (inhibition maximum)
row,Emax [%],SMILES
1,65,COc1cccc(-c2ccc([C@H]3C4CN(S(=O)(=O)c5ccccc5C)CCCCN4[C@@H]3CO)cc2)c1 (some centres unmarked) [K3]
2,72,Cc1ccc(-c2ccc([C@H]3C4CN(S(=O)(=O)c5ccccc5C)CCCCN4[C@@H]3CO)cc2)cc1C (some centres unmarked) [K4]
3,100,Cc1ccccc1S(=O)(=O)N1CCCCN2C(C1)[C@H](c1ccc(-c3ccc4c(c3)OCO4)cc1)[C@H]2CO (some centres unmarked) [K5]
4,65,Cc1ccccc1S(=O)(=O)N1CCCCN2C(C1)[C@H](c1ccc(-c3ccccc3)cc1)[C@H]2CO (some centres unmarked) [K7]
5,100,Cc1ccccc1S(=O)(=O)N1CCCCN2C(C1)[C@H](c1ccc(-c3cccc(O)c3)cc1)[C@H]2CO (some centres unmarked) [K8]
6,65,Cc1ccccc1S(=O)(=O)N1CCCCN2C(C1)[C@H](c1ccc(-c3cccc(C)c3C)cc1)[C@H]2CO (some centres unmarked) [K9]
7,72,Cc1cc(C)cc(-c2ccc([C@H]3C4CN(S(=O)(=O)c5ccccc5C)CCCCN4[C@@H]3CO)cc2)c1 (some centres unmarked) [K10]
8,65,Cc1ccccc1S(=O)(=O)N1CCCCN2C(C1)[C@H](c1ccc(-c3cccc(F)c3)cc1)[C@H]2CO (some centres unmarked) [K11]
9,65,Cc1ccccc1-c1ccc([C@H]2C3CN(S(=O)(=O)c4ccccc4C)CCCCN3[C@@H]2CO)cc1 (some centres unmarked) [K12]
10,65,Cc1ccc(C)c(-c2ccc([C@H]3C4CN(S(=O)(=O)c5ccccc5C)CCCCN4[C@@H]3CO)cc2)c1 (some centres unmarked) [K13]
11,65,COc1ccccc1-c1ccc([C@H]2C3CN(S(=O)(=O)c4ccccc4C)CCCCN3[C@@H]2CO)cc1 (some centres unmarked) [K14]
12,90,Cc1ccccc1S(=O)(=O)N1CCCCN2C(C1)[C@H](c1ccc(-c3cccc(F)c3F)cc1)[C@H]2CO (some centres unmarked) [K15]
13,100,Cc1ccccc1S(=O)(=O)N1CCCCN2C(C1)[C@H](c1ccc(-c3cnc(F)c(C)c3)cc1)[C@H]2CO (some centres unmarked) [K26]
14,60,Cc1cccc(-c2ccc([C@H]3[C@H](CO)N4C(=O)CN(C(=O)NC5CCCCC5)C[C@@H]34)cc2)c1 [compound 130]
15,60,CCCNC(=O)N1CC(=O)N2[C@@H](CO)[C@H](c3ccc(-c4cccc(C)c4)cc3)[C@@H]2C1 [compound 231]
16,80,COC[C@H]1[C@H](c2ccc(C#Cc3ccccc3F)cc2)[C@@H]2CN(C(=O)NC(C)C)CCCCN12 [compound 304]
17,80,O=C(NC1CCCC1)N1CCCCN2[C@@H](CO)[C@H](c3ccc(/C=C/c4ccccc4)cc3)[C@@H]2C1 [compound 346]
18,50,Cc1ccccc1-c1ccc([C@H]2[C@H]3CN(C(=O)NC4CCCC4)CC(=O)N3[C@H]2CO)cc1 [compound 612]

row,SMILES,Emax [%]
1,Cc1ccccc1-c1ccc([C@@H]2[C@H](CO)N3CCCCN(C(=O)Cc4ccccn4)C[C@@H]23)cc1 [compound 469],80
